Test results: patent US20070129334A1, “Orally Active Purine-Based Inhibitors of Heat Shock Protein 90” (CONFORMA THERAPEUTICS CORPORATION, priority 2001, published 2007)
Read-outs that look alike come from different tables or passages of the source.

Key:
[1] = tested on: MCF-7 breast cancer cells; test: MTS cell growth inhibition assay; type: cell-based, human; conditions: MCF-7 cells
[2] = tested on: N87 xenograft model of human stomach cancer; conditions: for tumor growth inhibition: N87
[3] = tested on: Purified native Hsp90 protein (mixture of alpha and beta) from HeLa cells; test: Fluorescence-based competitive binding assay for biotinylated-geldanamycin to purified Hsp90; design: species or system human; conditions: HSP90 binding ability; competition with biotin-GM
Her-2 in MCF-7 cells = test: HER2 inhibition assay (Her-2 degradation, MCF-7 cells, 24 incubation, flow cytometry); type: cell-based; conditions: Homo sapiens, MCF7, concentration necessary to degrade 50% of Her 2 expression
Description: MCF-7 cells are seeded in 24 well plates at a density of approximately 30,000 cells/well and allowed to grow for 16 hours in DMEM supplemented with 10% FBS. Drug is then added at a concentration range of 100 uM to 0.01 uM. Cells are incubated for an additional […]. Drug treated cells and untreated control cells are trypsinized, and incubated at room temperature for 15 minutes with anti Her-2 neu Ab conjugated with phycoerythrin (Becton Dickinson, San Jose Calif.; Cat no. 340552) at a concentration of 0.25 ug/ml, or non-specific control IgG1 conjugated with phycoerythrin (Becton Dickinson, San Jose Calif.; Cat no. 340761). Samples were analyzed using a FACS Calibur flow cytometer (Becton Dickinson) equipped with Argon-ion laser that which emits 15 mW of 488 nm light for excitation of the phycoerythrin fluorochrome. 10,000 events were collected per sample. A fluorescence histogram was generated and the mean fluorescence intensity (mfi) of each sample was determined using Cellquest software. The background was defined as the mfi generated from cells incubated with control IgG, and was subtracted from each sample stained with the HER-2/neu Ab Percent degradation of Her-2 was calculated as follows: % Her-2 degradation=(mfi HER-2 sample)/(mfi HER-2 untreated cells)×100
The compounds in the table below were prepared as described above and evaluated for Her-2 degradation ability based on the above assay (example 314).

[4] = tested on: HER-2 receptor (Hsp90 client) in MCF-7 cells; test: HER-2 degradation assay (MCF-7 cells, 16 h, phycoerythrin-labeled antibody and flow cytometry); type: cell-based, human
[5] = Solubility in simulated gastric fluid, simulated intestinal fluid and serum; type: physicochemical; conditions: for Serum (PH 7.4): solubility in serum; for Gastric (PH 2.0): solubility in simulated gastric fluid; for Intestinal (PH 6.5): solubility in simulated intestinal fluid
[6] = Mouse pharmacokinetics after oral administration at 100 mg/kg
in vivo = conditions: Balb/C, mouse, plasma
[7] = Pharmacokinetics in Balb/C mice (IV 10 mg/kg, PO 100 mg/kg); conditions: for IV Parameters T1/2 / IV Parameters VSS / IV Parameters Cl: IV 10 mg/kg; for IV Parameters T1/2 / IV Parameters VSS / PO Parameters T1/2 / PO Parameters Tmax / PO Parameters Cmax / PO Parameters AUC: H3PO4 salts; for IV Parameters Cl: H3PO4 salts in phosphatidylcholine/water dispersion; for PO Parameters T1/2 / PO Parameters Tmax / PO Parameters Cmax / PO Parameters AUC: PO 100 mg/kg; for PO Parameters Cmax: plasma; for PO Parameters AUC: over 4 h; for PO Parameters % F: oral bioavailability, PO 100 mg/kg vs IV 10 mg/kg
[8] = Homo sapiens, MCF7, 120 h, 5 days, SEM 9-21% of the mean
[9] = Homo sapiens, MCF7, MCF-7 cells, 16 h, average of at least three observations, read-out: HER-2 IC50
[10] = Homo sapiens, MCF7, MCF-7 cells, 16 h, SEM 6-11% of the mean, read-out: HER-2 IC50

Work on `C#CCCCn1c(Sc2cc(OC)ccc2I)nc2c(N)ncnc21` [Compound 309, 8-(2-iodo-5-methoxy-phenylsulfanyl)-9-pent-4-ynyl-9H-purin-6-ylamine] yielded an IC50 [1, 8] of 700 nM.

For `COc1ccc(I)c(Sc2nc3c(N)ncnc3n2CCNCC(C)(C)C)c1.O=P(O)(O)O` [Compound 132.H3PO4, 9-[2-(2,2-Dimethyl-propylamino)-ethyl]-8-(2-iodo-5-methoxy-phenylsulfanyl)-9H-purin-6-ylamine, H3PO4 salt], the tumor growth inhibition ([2]; oral 2×100 mg/kg/day, 5 days/week) was “statistically significant (p=0.02) tumor growth inhibition” and the toxicity ([2]; oral 2×100 mg/kg/day, 5 days/week, mice) was “no overt toxicity”.

For `CCCCn1c(Cc2cc(OC)ccc2OC)nc2c(N)ncnc21` [Compound 1, 8-(2,5-dimethoxybenzyl)-N-9-butyladenine], the IC50 [3] was 10000 nM, the IC50 (Her-2 in MCF-7 cells) was 6000 nM and the IC50 [4, 9] was 12000 nM.

For `Nc1ncnc2c1nc(Sc1nc3cccc(Cl)c3s1)n2CCNC1CC1` [Compound 264], the IC50 ([4]; 9-N-alkyl position SAR, head prints no unit, nM, read-out: HER-2) was 110 nM, the “Serum (PH 7.4)” value [5] was 59 µg/mL and the “Gastric (PH 2.0)” value [5] was 245 µg/mL. The “Intestinal (PH 6.5)” value [5] was 21 µg/mL, the tumor growth inhibition ([2]; oral 200 mg/kg 5 days/week, day 39, vs control group) was 56% and the “oral bioavailability (in words)” value [6] was “orally bioavailable”. The C-max ([6]; PO 100 mg/kg) was 4513 ng/mL, the “Mouse PK PO AUC at 100 mg/kg PO” value ([6]; PO 100 mg/kg) was 430511 ng·min/mL and the “Mouse PK PO Cmax at 100 mg/kg” value ([6]; PO 100 mg/kg) was 4479 ng/mL. For the same compound, the “time of C-max after dosing” value ([6]; PO 100 mg/kg) was 30 min and the half life ([6]; PO 100 mg/kg, estimated) was ~90 min.

For `C#CCCCn1c(Cc2cc(OC)ccc2I)nc2c(N)nc(F)nc21` [Compound 29, 2-Fluoro-8-(2-iodo-5-methoxy-benzyl)-9-pent-4-ynyl-9H-purin-6-ylamine], the IC50 [3] was 900 nM and the IC50 (Her-2 in MCF-7 cells) was 800 nM.

`CCC(CC)NCCCn1c(Sc2cc(OC)ccc2I)nc2c(N)ncnc21` [Compound 108, 9-[3-(1-Ethyl-propylamino)-propyl]-8-(2-iodo-5-methoxy-phenylsulfanyl)-9H-purin-6-ylamine] gave an IC50 [4, 10] of 210 nM, an IC50 ([4]; Homo sapiens, MCF7, MCF-7 cells, read-out: HER-2 IC50) of 210 nM and an IC50 [1, 8] of 200 nM. The IC50 ([1]; Homo sapiens, MCF7) was 200 nM, the Cmax (in vivo; po, 100 mg/kg) was 12 µM and the “IV Parameters T1/2” value [7] was 30 min. For the same compound, the “IV Parameters VSS” value [7] was 2.4 L/kg, the “IV Parameters Cl” value [7] was 69 mL/min/kg and the “PO Parameters T1/2” value [7] was 36 min. For the same compound, the “PO Parameters Tmax” value [7] was 30 min, the “PO Parameters Cmax” value [7] was 5800 ng/mL and the “PO Parameters AUC” value [7] was 590 µg·min/mL. The “PO Parameters % F” value [7] was 42%.

In the case of `C#CCCCn1c(Cc2cc(OC)ccc2OC)nc2c(N)ncnc21` [Compound 8, 8-(2,5-Dimethoxy-benzyl)-9-pent-4-ynyl-9H-purin-6-ylamine], the IC50 [3] is reported as 6000 nM and the IC50 (Her-2 in MCF-7 cells) is reported as 1500 nM.

Work on `COc1ccc(I)c(Cc2nc3c(N)ncnc3n2CCC=C(C)C)c1` [Compound 27, 8-(2-Iodo-5-methoxy-benzyl)-9-(4-methyl-pent-3-enyl)-9H-purin-6-yl amine] yielded an IC50 [3] of 900 nM and an IC50 (Her-2 in MCF-7 cells) of 800 nM.

With `C#CCCCn1c(Cc2cc(OC)ccc2I)nc2c(N)ncnc21` [Compound 26, 8-(2-Iodo-5-methoxy-benzyl)-9-pent-4-ynyl-9H-purin-6-ylamine] the IC50 [3] was 1100 nM and the IC50 (Her-2 in MCF-7 cells) was 1500 nM.

`COc1ccc(I)c(Cc2nc3c(N)nc(F)nc3n2CCC=C(C)C)c1` [Compound 28, 2-Fluoro-8-(2-iodo-5-methoxy-benzyl)-9-(4-methyl-pent-3-enyl)-9H-purin-6-ylamine] gave an IC50 [3] of 2300 nM and an IC50 (Her-2 in MCF-7 cells) of 1000 nM.

For `CCC(C)NCCCn1c(Sc2cc(OC)ccc2I)nc2c(N)ncnc21` (racemic) [Compound 109, 9-(3-sec-Butylamino-propyl)-8-(2-iodo-5-methoxy-phenylsulfanyl)-9H-purin-6-ylamine (racemate)], the IC50 [4, 10] was 210 nM, the IC50 [1, 8] was 200 nM and the clearance (in vivo; iv, 10 mg/kg) was 33 mL/min/kg. The AUC (in vivo; po, 100 mg/kg) was 6330 ng·h/mL, the Tmax (in vivo; po, 100 mg/kg) was 30 min and the bioavailability (in vivo; po, 100 mg/kg) was 28%. The “IV Parameters T1/2” value [7] was 78 min, the “IV Parameters VSS” value [7] was 3.4 L/kg and the “PO Parameters T1/2” value [7] was 42 min. The “PO Parameters Cmax” value [7] was 4800 ng/mL.

With `C#CCCCn1c(Sc2cc(OC)ccc2OC)nc2c(N)ncnc21` [Compound 57, 8-(2,5-dimethoxy-phenylsulfanyl)-9-pent-4-ynyl-9H-purin-6-ylamine] the IC50 [3] was 4000 nM and the IC50 (Her-2 in MCF-7 cells) was 1400 nM.

Compound `CCCCn1c(Sc2cc(OC)ccc2I)nc2c(N)ncnc21` [Compound 44, 9-Butyl-8-(2-iodo-5-methoxy-phenylsulfanyl)-9H-purin-6-ylamine] has an IC50 [3] of 1500 nM and an IC50 (Her-2 in MCF-7 cells) of 1500 nM.

`C=CCNC1=C2C[C@@H](C)C[C@H](OC)[C@H](O)[C@@H](C)/C=C(\C)[C@H](OC(N)=O)[C@@H](OC)/C=C\C=C(/C)C(=O)NC(=CC1=O)C2=O` [Compound 17-AAG, 17-allylamino,17-desmethoxy-geldanamycin, reference compound] gave an IC50 ([4]; read-out: HER-2 IC50) of 12.9 ± 0.3 nM and an IC50 ([1]; 5 days) of 32 ± 4 nM.

With `COc1ccc(I)c(Sc2nc3c(N)ncnc3n2CCCNC(C)(C)C)c1` [Compound 95, 9-(3-tert-Butylamino-propyl)-8-(2-iodo-5-methoxy-phenylsulfanyl)-9H-purin-6-ylamine] the IC50 [4, 10] was 140 nM, the IC50 [1, 8] was 200 nM and the bioavailability (in vivo; oral, 100 mg/kg) was ≥ 50%. For the same compound, the “IV Parameters T1/2” value [7] was 96 min, the “IV Parameters VSS” value [7] was 24 L/kg and the “IV Parameters Cl” value [7] was 131 mL/min/kg. For the same compound, the “PO Parameters T1/2” value [7] was 54 min, the “PO Parameters Tmax” value [7] was 30 min and the “PO Parameters Cmax” value [7] was 6700 ng/mL. For the same compound, the “PO Parameters AUC” value [7] was 680 µg·min/mL and the “PO Parameters % F” value [7] was 97%.

`COc1ccc(OC)c(Cc2nc3c(N)nc(F)nc3n2CCCCCBr)c1` [Compound 5, 8-(2,5-Dimethoxy-benzyl)-2-fluoro-9-(5-bromo-pentyl)-9H-purin-6-ylamine] showed an IC50 [3] of 2000 nM and an IC50 (Her-2 in MCF-7 cells) of 1000 nM.

Compound `C#CCCCn1c(Sc2cc(OC)ccc2I)nc2c(N)ncnc21` [Compound 47, 8-(2-Iodo-5-methoxy-phenylsulfanyl)-9-pent-4-ynyl-9H-purin-6-ylamine] has an IC50 [3] of 800 nM and an IC50 (Her-2 in MCF-7 cells) of 300 nM.

Compound `COc1ccc(I)c(Sc2nc3c(N)ncnc3n2CCC=C(C)C)c1` [Compound 46, 8-(2-Iodo-5-methoxy-phenylsulfanyl)-9-(4-methyl-pent-3-enyl)-9H-purin-6-ylamine] has an IC50 [3] of 900 nM, an IC50 (Her-2 in MCF-7 cells) of 300 nM and an IC50 [4, 9] of 370 nM.

With `CCOP(=O)(CCn1c(Sc2nc3cncc(Cl)c3s2)nc2c(N)ncnc21)OCC` [Compound 206, {2-[6-Amino-8-(7-chloro-thiazolo[4,5-c]pyridinl-2-ylsulfanyl)-purin-9-yl]-ethyl}-phosphonic acid diethyl ester] the “solubility compared with benzothioazol analog 204” value ([5]; simulated gastric fluid, simulated intestinal fluid, serum) was “significantly more soluble in all three solutions”, the “Serum (PH 7.4)” value [5] was 14 µg/mL and the “Gastric (PH 2.0)” value [5] was 124 µg/mL. The “Intestinal (PH 6.5)” value [5] was 38.3 µg/mL, the “plasma concentrations (in words)” value ([6]; PO 100 mg/kg) was “below the level of detection” and the Cmax ([6]; in vivo, po, 100 mg/kg) was < 500 ng/mL.

For `COc1ccc(OC)c(Sc2nc3c(N)ncnc3n2CCC=C(C)C)c1` [Compound 63, 8-(2,5-dimethoxy-phenylsulfanyl)-9-(4-methyl-pent-3-enyl)-9H-purin-6-ylamine], the IC50 [3] was 1300 nM and the IC50 (Her-2 in MCF-7 cells) was 700 nM.
